Experimental data published in patent US20160145257A1, “SUBSTITUTED XANTHINES AND METHODS OF USE THEREOF” (Hydra Biosciences, Inc., priority 2013, published 2016).

molecular target: T1, hTRPC5 (Homo sapiens, UniProt Q9UL62); assay: Whole-cell patch clamp, block of LaCl3-activated TRPC5 inward current; format: cell-based; conditions: TRPC5-expressing HEK293 TREx cells, 80 μM LaCl3, inward current, IC50 estimated from 5 μM and 500 nM, read-out: hTRPC5 Patch La3+ Inwd (nM) (All Batches)
T1 construct: expressed in transfected cells; host or cells: HEK293 TREx cells with inducible TRPC5 expression
T1 sequence (Q9UL62 1-973): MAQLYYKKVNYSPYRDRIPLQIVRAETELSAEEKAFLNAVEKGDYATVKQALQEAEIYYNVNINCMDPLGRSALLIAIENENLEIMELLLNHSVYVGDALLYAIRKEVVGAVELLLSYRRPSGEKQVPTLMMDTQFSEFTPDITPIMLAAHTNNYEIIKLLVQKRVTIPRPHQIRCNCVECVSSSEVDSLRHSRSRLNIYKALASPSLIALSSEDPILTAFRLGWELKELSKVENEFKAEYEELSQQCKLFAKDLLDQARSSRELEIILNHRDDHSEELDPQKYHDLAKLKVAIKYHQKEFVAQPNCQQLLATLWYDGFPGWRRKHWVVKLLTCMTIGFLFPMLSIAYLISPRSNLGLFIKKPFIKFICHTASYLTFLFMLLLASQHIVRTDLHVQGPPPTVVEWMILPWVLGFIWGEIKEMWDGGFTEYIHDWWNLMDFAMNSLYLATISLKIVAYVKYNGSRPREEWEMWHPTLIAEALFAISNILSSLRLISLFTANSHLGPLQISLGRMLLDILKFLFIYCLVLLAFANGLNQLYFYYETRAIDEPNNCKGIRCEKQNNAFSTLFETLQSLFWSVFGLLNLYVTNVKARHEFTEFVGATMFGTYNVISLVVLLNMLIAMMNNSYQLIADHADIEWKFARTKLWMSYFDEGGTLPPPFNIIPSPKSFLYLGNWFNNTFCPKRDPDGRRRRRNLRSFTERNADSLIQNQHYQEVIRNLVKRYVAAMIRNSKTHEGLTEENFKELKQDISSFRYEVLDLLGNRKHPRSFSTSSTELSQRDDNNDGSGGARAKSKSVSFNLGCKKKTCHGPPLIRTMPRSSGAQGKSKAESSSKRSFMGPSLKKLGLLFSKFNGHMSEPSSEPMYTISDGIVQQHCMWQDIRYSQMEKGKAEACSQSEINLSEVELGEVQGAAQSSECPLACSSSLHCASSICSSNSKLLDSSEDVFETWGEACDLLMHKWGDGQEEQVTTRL
Protocol: In certain embodiments, exemplary compounds of Formula I and Formula II include the compounds described in Table 1 and in the Examples. A compound described herein may be tested for its ability to block both inward and outward currents through the TRPC5 channel, e.g., by an assay as described in Example 1. For example, IC50 of a compound of Formula I or Formula II was estimated by testing the compound at 5 μM and 500 nM. […] IC50 for a compound of Formula I or Formula II between 500 nM and 5 μM was similarly estimated. As shown, “A” refers to an IC50<100 nM. “B” refers to an IC50 between 100 nM and 500 nM. “C” refers to an IC50 between 500 nM and 1000 nM. “D” refers to an IC50 between 1 μM and 2 μM. “E” refers to an IC50 between 2 μM and 10 μM. “F” refers to […]. “ND” refers to compounds wherein the IC50 was not determined.
Patch clamp experiments permit the detection of currents through the TRPC5 channel in the cell line described above. In normal whole-cell patch clamp recordings, a glass electrode is brought into contact with a single cell and a high-resistance (gigaohm) seal is established with the cell membrane. The membrane is then ruptured to achieve the whole-cell configuration, permitting control of the voltage of the cell membrane and measurement of currents flowing across the membrane using the amplifier attached to the electrode and resulting in the replacement of cytoplasm with the pipette solution. A perfusion system permits control of the extracellular solution, including the addition of blockers and activators of the current. The current can be activated by including 1.4 μM free Ca^2+ in the pipette (intracellular) solution, and 80 μM LaCl3 in the extracellular solution.
TRPC5 cells were induced 20-48 hours, removed from growth plates, and replated at low density (to attain good single-cell physical separation) on glass coverslips for measurement. In some cases, cells were grown in low density overnight on glass coverslips. Patch clamp recordings were made in the whole-cell mode with a holding potential of −40 mV. Every 5 seconds, a voltage ramp was applied from −120 to +100 mV, 400 ms in duration. Currents elicited were quantified at −80 mV and +80 mV. The internal solution consisted of 140 mM cesium aspartate, 10 mM HEDTA, 2 mM CaCl2, 2.27 mM MgCl2 and 10 mM HEPES, pH 7.2, with 1,400 nM calculated free Ca^2+. The external solution consisted of 150 mM NaCl, 4.5 mM KCl, 1 mM MgCl2, 2 mM CaCl2, 10 mM HEPES, 10 mM glucose, 1 mM EGTA, pH 7.4. Upon addition of LaCl3, TRPC5 current was induced only in TRPC5-expressing cells and not in parental HEK293 TREx cells. Removal of the LaCl3 stimulus causes most of the current to go away. Potential blockers were tested for ability to block both inward and outward currents in the continued presence of LaCl3.
IC50 of a compound of Formula I or Formula II was estimated by testing the compound at 5 μM and 500 nM. […] IC50 for a compound of Formula I or Formula II between 500 nM and 5 μM was similarly estimated.

Row | IC50 [nM] | SMILES
1 | 2000 to 10000 | C[C@H]1CCCN1c1ncc(-c2cccc(NC(=O)Cc3nc4c(c(=O)n(C)c(=O)n4C)n3Cc3cccc(Br)c3)n2)cn1 [Compound 30]
2 | 2000 to 10000 | CCOCCCc1nc2c(c(=O)n(C)c(=O)n2C)n1Cc1cccc(Br)c1 [Compound 54, 7-(3-bromobenzyl)-8-(3-ethoxypropyl)-1,3-dimethyl-1H-purine-2,6(3H,7H)-dione]
3 | 100 to 500 | CCc1coc(CSc2nc3c(c(=O)n(C)c(=O)n3C)n2Cc2cccc(Br)c2)n1 [Compound 20, 7-(3-bromobenzyl)-8-((4-ethyloxazol-2-yl)methylthio)-1,3-dimethyl-1H-purine-2,6(3H,7H)-dione]
4 | 1000 to 2000 | CCOC(=O)CCCc1nc2c(c(=O)n(C)c(=O)n2C)n1Cc1cccc(Br)c1 [Compound 50, Ethyl 4-(7-(3-bromobenzyl)-1,3-dimethyl-2,6-dioxo-2,3,6,7-tetrahydro-1H-purin-8-yl)butanoate]
5 | < 100 | CCCCC(=O)c1nc2c(c(=O)n(C)c(=O)n2C)n1Cc1cccc(Br)c1 [Compound 105, 7-(3-bromobenzyl)-1,3-dimethyl-8-pentanoyl-1H-purine-2,6(3H,7H)-dione]
6 | 100 to 500 | CCc1coc(CSc2nc3c(c(=O)n(C)c(=O)n3C)n2Cc2cccc(Cl)c2)n1 [Compound 134, 7-(3-chlorobenzyl)-8-((4-ethyloxazol-2-yl)methylthio)-1,3-dimethyl-1H-purine-2,6(3H,7H)-dione]
7 | 2000 to 10000 | Cn1c(=O)c2c(nc(SCc3ccncc3)n2Cc2cccc(Br)c2)n(C)c1=O [Compound 11, 7-(3-bromobenzyl)-1,3-dimethyl-8-(pyridin-4-ylmethylthio)-1H-purine-2,6(3H,7H)-dione]
8 | < 100 | CCc1coc(CSc2nc3c(c(=O)n(C)c(=O)n3C)n2Cc2ccc(Cl)cc2)n1 [Compound 146, 7-(4-chlorobenzyl)-8-((4-ethyloxazol-2-yl)methylthio)-1,3-dimethyl-1H-purine-2,6(3H,7H)-dione]
9 | 2000 to 10000 | CCCOCCc1nc2c(c(=O)n(C)c(=O)n2C)n1Cc1ccc(C)cc1 [Compound 94, 1,3-dimethyl-7-(4-methylbenzyl)-8-(2-propoxyethyl)-1H-purine-2,6(3H,7H)-dione]
10 | 2000 to 10000 | CCCNCCc1nc2c(c(=O)n(C)c(=O)n2C)n1Cc1cccc(Br)c1 [Compound 46]
11 | 1000 to 2000 | CCOC(=O)C(C)CCc1nc2c(c(=O)n(C)c(=O)n2C)n1Cc1cccc(Br)c1 (stereo not drawn) [Compound 136, Ethyl 4-(7-(3-bromobenzyl)-1,3-dimethyl-2,6-dioxo-2,3,6,7-tetrahydro-1H-purin-8-yl)-2-methylbutanoate]
12 | 1000 to 2000 | CCCOCCc1nc2c(c(=O)n(C)c(=O)n2C)n1Cc1ccc(OC(F)(F)F)cc1 [Compound 109]
13 | < 100 | CCCC(O)C(C)(C)Sc1nc2c(c(=O)n(C)c(=O)n2C)n1Cc1cccc(Br)c1 (stereo not drawn) [Compound 122, 7-(3-bromobenzyl)-8-(3-hydroxy-2-methylhexan-2-ylthio)-1,3-dimethyl-1H-purine-2,6(3H,7H)-dione]
14 | 100 to 500 | Cn1c(=O)c2c(nc(Oc3cccc(C(F)(F)F)c3)n2Cc2cccc(Br)c2)n(C)c1=O [Compound 138, 7-(3-Bromobenzyl)-1,3-dimethyl-8-(3-(trifluoromethyl)phenoxy)-1H-purine-2,6(3H,7H)-dione]
15 | 2000 to 10000 | CCc1coc(CSc2nc3c(c(=O)n(C)c(=O)n3C)n2Cc2cccc(C#N)c2)n1 [Compound 170, 3-((8-((4-ethyloxazol-2-yl)methylthio)-1,3-dimethyl-2,6-dioxo-2,3-dihydro-1H-purin-7(6H)-yl)methyl)benzonitrile]
16 | 100 to 500 | Cn1c(=O)c2c(nc(OCC3CCCC3)n2Cc2ccc(Cl)cc2)n(C)c1=O [Compound 216, 7-(4-Chlorobenzyl)-8-(cyclopentylmethoxy)-1,3-dimethyl-1H-purine-2,6(3H,7H)-dione]
17 | 2000 to 10000 | CCCN(CCc1nc2c(c(=O)n(C)c(=O)n2C)n1Cc1cccc(Br)c1)C(C)=O [Compound 49]
18 | 2000 to 10000 | CCOCCSc1nc2c(c(=O)n(C)c(=O)n2C)n1Cc1cccc(Cl)c1 [Compound 16]
19 | 2000 to 10000 | CN(C)CCCSc1nc2c(c(=O)n(C)c(=O)n2C)n1Cc1cccc(Br)c1 [Compound 22]
20 | 1000 to 2000 | CCCOCCc1nc2c(c(=O)n(C)c(=O)n2C)n1Cc1ccc(Br)cc1 [Compound 95, 7-(4-bromobenzyl)-1,3-dimethyl-8-(2-propoxyethyl)-1H-purine-2,6(3H,7H)-dione]
21 | 2000 to 10000 | CC1CCN(Cc2nc3c(c(=O)n(C)c(=O)n3C)n2Cc2cccc(Br)c2)CC1 [Compound 44]
22 | 1000 to 2000 | COc1cccc(Cn2c(Oc3ccc(Br)cc3)nc3c2c(=O)n(C)c(=O)n3C)c1 [Compound 194, 8-(4-bromophenoxy)-7-(3-methoxybenzyl)-1,3-dimethyl-1H-purine-2,6(3H,7H)-dione]
23 | < 100 | CCOC(=O)c1cccc(Oc2nc3c(c(=O)n(C)c(=O)n3C)n2Cc2cccc(Br)c2)c1 [Compound 57, Ethyl 3-(7-(3-bromobenzyl)-1,3-dimethyl-2,6-dioxo-2,3,6,7-tetrahydro-1H-purin-8-yloxy)benzoate]
24 | 100 to 500 | CCOCc1cccc(Oc2nc3c(c(=O)n(C)c(=O)n3C)n2Cc2cccc(Br)c2)c1 [Compound 126, 7-(3-bromobenzyl)-8-(3-(ethoxymethyl)phenoxy)-1,3-dimethyl-1H-purine-2,6(3H,7H)-dione]
25 | 2000 to 10000 | CCCCC(O)c1nc2c(c(=O)n(C)c(=O)n2C)n1Cc1cccc(Br)c1 (stereo not drawn) [Compound 98]
26 | 1000 to 2000 | CCOC(=O)CCC(C)(C)c1nc2c(c(=O)n(C)c(=O)n2C)n1Cc1cccc(Br)c1 [Compound 84]
27 | 2000 to 10000 | Cn1c(=O)c2c(nc(Cc3cccc(C#N)c3)n2Cc2cccc(Br)c2)n(C)c1=O [Compound 101]
28 | 2000 to 10000 | Cn1c(=O)c2c(nc(CC(=O)NCCO)n2Cc2cccc(Br)c2)n(C)c1=O [Compound 38, 2-(7-(3-Bromobenzyl)-1,3-dimethyl-2,6-dioxo-2,3,6,7-tetrahydro-1H-purin-8-yl)-N-(2-hydroxyethyl)acetamide]
29 | 100 to 500 | Cn1c(=O)c2c(nc(Oc3cccc(Cl)c3)n2Cc2cccc(Br)c2)n(C)c1=O [Compound 110, 7-(3-bromobenzyl)-8-(3-chlorophenoxy)-1,3-dimethyl-1H-purine-2,6(3H,7H)-dione]
30 | 100 to 500 | Cn1c(=O)c2c(nc(Oc3cccc(C(F)(F)F)c3)n2Cc2cccc(Cl)c2)n(C)c1=O [Compound 137, 7-(3-Chlorobenzyl)-1,3-dimethyl-8-(3-(trifluoromethyl)phenoxy)-1H-purine-2,6(3H,7H)-dione]
